Test results published in patent US9073895B2 (Boehringer Ingelheim International GmbH, priority 2010, dated 2015).

These molecules were tested against T1, recombinant human FLAP protein (Homo sapiens, UniProt P20292) (assay: FLAP binding assay (SPA, displacement of [125I]L-691,831)). Details: membranes of sf9 cells expressing human FLAP, [125I]L-691,831 probe; read-out: hFLAP binding IC50.
T1 construct: made in house; host or cells: Sf9 insect cells (membrane fraction, 100,000 x g pellet)
T1 sequence (P20292 1-161): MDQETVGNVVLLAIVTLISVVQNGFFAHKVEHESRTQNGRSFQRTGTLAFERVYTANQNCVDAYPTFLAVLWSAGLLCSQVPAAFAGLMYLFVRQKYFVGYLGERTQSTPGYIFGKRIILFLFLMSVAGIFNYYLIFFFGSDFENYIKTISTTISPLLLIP
Procedure: Compounds are assessed for the ability to bind to FLAP in a binding assay that measures compound-specific displacement of an iodinated (^125I) FLAP inhibitor via a Scintillation Proximity Assay format (adapted from S. Charleson et al., Mol. Pharmacol., 1992, 41, 873-879).
Cell pellets produced from sf9 insect cells expressing recombinant human FLAP protein are resuspended in buffer A [15 mM Tris-HCl (pH 7.5), 2 mM MgCl2, 0.3 mM EDTA, 1 mM PMSF]. The cells are lysed with a Dounce homogenizer and the material is centrifuged at 10,000×g for 10 minutes. The supernatant is then collected and centrifuged at 100,000×g for 60 minutes. To prepare membrane protein for an assay, an aliquot of the 100,000×g pellet is resuspended in 1 ml of buffer A, Dounce homogenized, and finally subjected to polytron mixing (30 seconds). Membrane protein (25 μl, 5 μg) is mixed with WGA SPA beads (Amersham) and stirred for 1 h. To an assay plate (Perkin Elmer FlexiPlate) is added 25 μl of test compound prepared in Binding buffer [100 mM Tris (pH 7.5), 140 mM NaCl, 5% glycerol, 2 mM EDTA, 0.5 mM TCEP, 0.05% Tween 20], 25 μl of [^125I]L-691,831 (an iodinated analog of MK-591, Charleson et al. Mol. Pharmacol., 41, 873-879, 1992) and finally 50 μl of the bead/protein mixture. (final concentrations: beads, 200 μg/well; protein, 5μg/well; [^125I] probe, 0 08 nM/well(17 nCi/well). The plates are shaken for 2 h before reading on a Microbeta plate reader. Non-specific binding is determined by the addition of 10 μM cold L-691,831 compound.
For `NC(=O)c1ccc(NC(=O)C2(c3ccc(-c4cnc(N)nc4)cc3)CCC2)cn1` [Example 240, 5-[({1-[4-(2-aminopyrimidin-5-yl)phenyl]cyclobutyl}carbonyl)amino]pyridine-2-carboxamide], the IC50 was 4.4 nM. Work on `Cc1cc(NC(=O)C2(c3ccc(-c4cnc(N)nc4)cc3)CCC2)nc(C)n1` [Example 212, 1-[4-(2-aminopyrimidin-5-yl)phenyl]-N-(2,6-dimethylpyrimidin-4-yl)cyclobutanecarboxamide] yielded an IC50 of 15 nM. Work on `Cc1nc(-c2ccc(NC(=O)C3(c4ccc(-c5cnc(N)nc5)cc4)CC3)nc2)cs1` [Example 251, 1-[4-(2-aminopyrimidin-5-yl)phenyl]-N-[5-(2-methyl-1,3-thiazol-4-yl)pyridin-2-yl]cyclopropanecarboxamide] yielded an IC50 of 16 nM. `COc1nc(-c2ccc(C3(C(=O)Nc4ccc(-c5csc(C)n5)cn4)CCOCC3)cc2)cnc1N` [Example 181, 4-[4-(5-amino-6-methoypyrazin-2-yl)phenyl]-N-[5-(2-methyl-1,3-thiazol-4-yl)pyridin-2-yl]tetrahydro-2H-pyran-4-carboxamide] gave an IC50 of 110 nM. `Nc1ncc(-c2ccc(C3(C(=O)Nc4ccccn4)CCCCC3)cc2)cn1` [Example 160, 1-[4-(2-aminopyrimidin-5-yl)phenyl]-N-(pyridin-2-yl)cyclohexanecarboxamide] gave an IC50 of 13 nM. With `Nc1ncc(-c2ccc(C3(C(=O)Nc4cc(C(F)(F)F)ccn4)CCOCC3)cc2)cn1` [Example 31, 4-[4-(2-aminopyrimidin-5-yl)phenyl]-N-[4-(trifluoromethyl)pyridin-2-yl]tetrahydro-2H-pyran-4-carboxamide] the IC50 was 140 nM. In the case of `CCOC(=O)c1sc(NC(=O)C2(c3ccc(-c4cnc(N)nc4)cc3)CCOCC2)nc1-c1ccccc1` [Example 19, ethyl 2-[({4-[4-(2-aminopyrimidin-5-yl)phenyl]tetrahydro-2H-pyran-4-yl}carbonyl)amino]-4-phenyl-1,3-thiazole-5-carboxylate], the IC50 is reported as 120 nM. In the case of `Nc1ncc(-c2ccc(C3(C(=O)Nc4cc(-c5cccnc5)no4)CCOCC3)cc2)cn1` [Example 57, 4-[4-(2-aminopyrimidin-5-yl)phenyl]-N-[3-(pyridin-3-yl)-1,2-oxazol-5-yl]tetrahydro-2H-pyran-4-carboxamide], the IC50 is reported as 260 nM. With `Cc1cccc(NC(=O)C2(c3ccc(-c4cnc(N)nc4)cc3)CCOCC2)n1` [Example 141, 4-[4-(2-aminopyrimidin-5-yl)phenyl]-N-(6-methylpyridin-2-yl)tetrahydro-2H-pyran-4-carboxamide] the IC50 was 190 nM. With `Nc1ncc(-c2ccc(C3(C(=O)Nc4ccc(C(=O)O)cn4)CCC3)cc2)cn1` [Example 96, 6-[({1-[4-(2-aminopyrimidin-5-yl)phenyl]cyclobutyl}carbonyl)amino]pyridine-3-carboxylic acid] the IC50 was 26 nM. `Nc1ncc(-c2ccc(C3(C(=O)Nc4ccc(C(=O)O)cn4)CCOCC3)cc2)cn1` [Example 157, 6-[({4-[4-(2-aminopyrimidin-5-yl)phenyl]tetrahydro-2H-pyran-4-yl}carbonyl)amino]pyridine-3-carboxylic acid] gave an IC50 of 410 nM. Work on `CC(C)C(C)(C(=O)Nc1ccncc1)c1ccc(-c2ccc(NCCO)nc2)cc1` (stereo not shown) [Example 226, 2-(4-{6-[(2-hydroxyethyl)amino]pyridin-3-yl}phenyl)-2,3-dimethyl-N-(pyridin-4-yl)butanamide] yielded an IC50 of 250 nM. For `CC(C)(O)c1ccc(NC(=O)C2(c3ccc(-c4cnc(N)nc4)cc3)CCOCC2)nc1` [Example 159, 4-[4-(2-aminopyrimidin-5-yl)phenyl]-N-[5-(2-hydroxypropan-2-yl)pyridin-2-yl]tetrahydro-2H-pyran-4-carboxamide], the IC50 was 420 nM. In the case of `Nc1ncc(-c2ccc(C3(C(=O)Nc4cccc(CN5CCCC5)c4)CCOCC3)cc2)cn1` [Example 50, 4-[4-(2-aminopyrimidin-5-yl)phenyl]-N-[3-(pyrrolidin-1-ylmethyl)phenyl]tetrahydro-2H-pyran-4-carboxamide], the IC50 is reported as 440 nM. With `CC(C)(C)c1ccc(NC(=O)C2(c3ccc(-c4cnc(N)nc4)cc3)CCOCC2)cc1` [Example 17, 4-[4-(2-aminopyrimidin-5-yl)phenyl]-N-(4-tert-butylphenyl)tetrahydro-2H-pyran-4-carboxamide] the IC50 was 330 nM. With `Cc1ccc(NC(=O)C2(c3ccc(-c4cnc(N)nc4)cc3)CCC2)cn1` [Example 249, 1-[4-(2-aminopyrimidin-5-yl)phenyl]-N-(6-methylpyridin-3-yl)cyclobutanecarboxamide] the IC50 was 22.5 nM. Work on `Cc1ccc(NC(=O)C2(c3ccc(-c4cnc(N)nc4)cc3)CCOCC2)nc1` [Example 139, 4-[4-(2-aminopyrimidin-5-yl)phenyl]-N-(5-methylpyridin-2-yl)tetrahydro-2H-pyran-4-carboxamide] yielded an IC50 of 110 nM. In the case of `COCCNc1ncc(-c2ccc(C3(C(=O)Nc4ccc(-c5csc(C)n5)cn4)CCOCC3)cc2)cn1` [Example 207, 4-(4-{2-[(2-methoxyethyl)amino]pyrimidin-5-yl}phenyl)-N-[5-(2-methyl-1,3-thiazol-4-yl)pyridin-2-yl]tetrahydro-2H-pyran-4-carboxamide], the IC50 is reported as 230 nM. In the case of `Nc1ncc(-c2ccc(C3(C(=O)Nc4cc(-c5ccccn5)no4)CCOCC3)cc2)cn1` [Example 56, 4-[4-(2-aminopyrimidin-5-yl)phenyl]-N-[3-(pyridin-2-yl)-1,2-oxazol-5-yl]tetrahydro-2H-pyran-4-carboxamide], the IC50 is reported as 380 nM. `CCCCCc1ccnc(NC(=O)C2(c3ccc(-c4cnc(N)nc4)cc3)CCOCC2)c1` [Example 161, 4-[4-(2-aminopyrimidin-5-yl)phenyl]-N-(4-pentylpyridin-2-yl)tetrahydro-2H-pyran-4-carboxamide] gave an IC50 of 31 nM. `Nc1ncc(-c2ccc(C3(C(=O)Nc4ccc(O)c(C(=O)O)c4)CCC3)cc2)cn1` [Example 101, 5-[({1-[4-(2-aminopyrimidin-5-yl)phenyl]cyclobutyl}carbonyl)amino]-2-hydroxybenzoic acid] showed an IC50 of 47 nM. `Cc1nc(-c2ccc(NC(=O)C(c3ccc(-c4cnc(N)nc4)cc3)C3CCCC3)nc2)cs1` (stereo not shown) [Example 248, 2-[4-(2-aminopyrimidin-5-yl)phenyl]-2-cyclopentyl-N-[5-(2-methyl-1,3-thiazol-4-yl)pyridin-2-yl]acetamide] showed an IC50 of 240 nM. For `Nc1ncc(-c2ccc(C3(C(=O)Nc4nc(-c5ccccc5)ns4)CCC3)cc2)cn1` [Example 242, 1-[4-(2-aminopyrimidin-5-yl)phenyl]-N-(3-phenyl-1,2,4-thiadiazol-5-yl)cyclobutanecarboxamide], the IC50 was 3.95 nM. Work on `Nc1ncc(-c2ccc(C3(C(=O)Nc4ccc5c(c4)CCC5)CCOCC3)cc2)cn1` [Example 6, 4-[4-(2-aminopyrimidin-5-yl)phenyl]-N-(2,3-dihydro-1H-inden-5-yl)tetrahydro-2H-pyran-4-carboxamide] yielded an IC50 of 150 nM. In the case of `Nc1ncc(-c2ccc(C3(C(=O)Nc4ccnc(O)c4)CCC3)cc2)cn1` [Example 220, 1-[4-(2-aminopyrimidin-5-yl)phenyl]-N-(2-hydroxypyridin-4-yl)cyclobutanecarboxamide], the IC50 is reported as 470 nM. Work on `CC(=O)N1CCc2cc(NC(=O)C3(c4ccc(-c5cnc(N)nc5)cc4)CCOCC3)ccc21` [Example 42, N-(1-acetyl-2,3-dihydro-1H-indol-5-yl)-4-[4-(2-aminopyrimidin-5-yl)phenyl]tetrahydro-2H-pyran-4-carboxamide] yielded an IC50 of 310 nM. Work on `Cc1nc(NC(=O)C2(c3ccc(-c4cnc(N)nc4)cc3)CCC2)sc1C` [Example 209, 1-[4-(2-aminopyrimidin-5-yl)phenyl]-N-(4,5-dimethyl-1,3-thiazol-2-yl)cyclobutanecarboxamide] yielded an IC50 of 13 nM. `COc1ccc(-c2nc(NC(=O)C3(c4ccc(-c5cnc(N)nc5)cc4)CCC3)n[nH]2)cc1` [Example 244, 1-[4-(2-aminopyrimidin-5-yl)phenyl]-N-[5-(4-methoxyphenyl)-1H-1,2,4-triazol-3-yl]cyclobutanecarboxamide] showed an IC50 of 10.8 nM. `Cn1c(=O)c2cc(NC(=O)C3(c4ccc(-c5cnc(N)nc5)cc4)CCOCC3)cnc2n(C)c1=O` [Example 69, 4-[4-(2-aminopyrimidin-5-yl)phenyl]-N-(1,3-dimethyl-2,4-dioxo-1,2,3,4-tetrahydropyrido[2,3-d]pyrimidin-6-yl)tetrahydro-2H-pyran-4-carboxamide] was tested, and the IC50 was 260 nM. In the case of `Nc1ncc(-c2ccc(C3(C(=O)Nc4ccccc4-c4ccccc4)CCC3)cc2)cn1` [Example 202, 1-[4-(2-aminopyrimidin-5-yl)phenyl]-N-(biphenyl-2-yl)cyclobutanecarboxamide], the IC50 is reported as 56.5 nM. `Cc1cnc(NC(=O)C2(c3ccc(-c4cnc(N)nc4)cc3)CCC2)s1` [Example 211, 1-[4-(2-aminopyrimidin-5-yl)phenyl]-N-(5-methyl-1,3-thiazol-2-yl)cyclobutanecarboxamide] was tested, and the IC50 was 23.5 nM.
